Test results from ChEMBL document CHEMBL6153149, “Cyclic Peptides Targeting Granzyme B: Potential Applications as PET Imaging Agents” (ACS Med Chem Lett, 2025).
Bridge positions count the residues as written; N and C are the ends. Square brackets hold non-standard residues; d marks the D form. Peptide text beside a SMILES is read from it. * marks the point of attachment. X1 = O=C(O)CN1CCN(CC(=O)O)CC(Cc2ccc(NC(=S)*)cc2)N(CC(=O)O)CC1; NMeF = CN[C@@H](Cc1ccccc1)C(=O)O

Target: Granzyme B (Homo sapiens, UniProt P10144)
Experiment: Binding affinity to human granzyme B assessed as equilibrium dissociation constant by SPR method

Chain of Granzyme B (P10144 whole entry): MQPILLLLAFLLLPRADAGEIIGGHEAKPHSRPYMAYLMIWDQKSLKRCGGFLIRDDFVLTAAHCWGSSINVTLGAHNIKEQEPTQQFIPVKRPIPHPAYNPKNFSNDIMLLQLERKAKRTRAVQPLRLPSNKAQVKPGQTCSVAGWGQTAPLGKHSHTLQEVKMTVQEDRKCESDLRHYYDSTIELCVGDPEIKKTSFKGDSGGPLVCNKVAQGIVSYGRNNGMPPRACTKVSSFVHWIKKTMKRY

- Kd: 1.1 nM
SMILES: CC(C)[C@@H]1NC(=O)[C@H](CC(=O)O)NC(=O)[C@H](Cc2ccc(O)cc2)NC(=O)[C@H](Cc2ccc(O)cc2)NC(=O)[C@H](Cc2ccccc2)N(C)C(=O)[C@H](Cc2ccccc2)N(C)C(=O)[C@H](Cc2ccccc2)NC(=O)CSC[C@@H](C(=O)NCC(=O)NCC(=O)N[C@@H](CCCCNC(=S)Nc2ccc(CC3CN(CC(=O)O)CCN(CC(=O)O)CCN3CC(=O)O)cc2)C(N)=O)NC(=O)[C@H](Cc2c[nH]cn2)NC(=O)[C@H](Cc2ccccc2)N(C)C(=O)[C@H](Cc2ccc(O)cc2)NC(=O)[C@H](C(C)C)NC(=O)[C@H](CC(=O)O)NC(=O)[C@H](C(C)C)NC(=O)[C@H](CC(=O)O)NC1=O (stereo partly specified) ({CH2CO}-F[NMeF][NMeF]YYDVDVDVY[NMeF]HCGGK(X1)-NH2; thioether N-15)
